This note sets out measurements from patent US12280047B2, “Treatment of aneurysms” (Georgia State Research Foundation, Inc., priority 2017, dated 2025).

What all share (type): in vivo
Test [1] relates to ApoE−/− and ApoE−/−/IDO−/− mice. The test is described as follows: Serum cytokine in AngII-infused mice. The conditions noted are these: 4 weeks, mean ± s.e.m. The source says: (§1) IDO^−/− and ApoE^−/− mice were obtained from Jackson laboratory (Bar Harbor, Maine) in a C57BL/6 background. IDO^−/− mice were crossed with ApoE^−/− mice to generate ApoE^−/−/IDO^−/− mice. Mice were housed in temperature-controlled cages under a 12-hour light/dark cycle and given free access to water and normal chow. All procedures involving animals were approved by the Institutional Animal Care and Use Committee at the University of Oklahoma Health Sciences Center. […] Circ Res. (2014) 114:480-92.
AngII infusion is intensely associated with vascular inflammation, which is considered a key mediator of AngII-induced AAA formation. See Qin Z, et al., Angiotensin II-induced TLR4 mediated abdominal aortic aneurysm in apolipoprotein E knockout mice is dependent on STAT3. J Mol Cell Cardiol. (2015) 87:160-70; Owens A P, et al., MyD88 deficiency attenuates angiotensin II-induced abdominal aortic aneurysm formation independent of signaling through Toll-like receptors 2 and 4. Arterioscler Thromb Vasc Biol. (2011) 31:2813-9. […] Circ Res. (2014) 114:480-92. Similarly, an increase in IFN-γ expression was evident in the aortas of AngII-treated ApoE^−/− and ApoE^−/−/IDO^−/− mice. The consequent induction of IDO expression in the aortas of AngII-infused ApoE^−/− mice was also observed (FIGS. 2A, 2B, and 2E). […] This may be due to the high content of Trp in mouse diets.

For test [2] the test system is unchanged. As to the kind of experiment: AngII-induced AAA after reciprocal bone marrow transplants. The settings on record: AngII 1000 ng/min per kg, 4 weeks. The method, then:
Bone marrow transplantation was performed as described previously (Lukasova M, et al., Nicotinic acid inhibits progression of atherosclerosis in mice through its receptor GPR109A expressed by immune cells. J Clin Invest. (2011) 121:1163-73; Duran-Struuck R and Dysko R C. Principles of bone marrow transplantation (BMT): providing optimal veterinary and husbandry care to irradiated mice in BMT studies. J Am Assoc Lab Anim Sci. (2009) 48:11-22). Bone marrow was obtained aseptically from femora and tibiae of ApoE^−/− or ApoE^−/−/IDO^−/− mice. Cells (5×10^6/mouse) were resuspended in sterile PBS and transplanted by intravenous infusion into lethally irradiated (10 Gy) ApoE^−/− or ApoE^−/−/IDO^−/− mice recipients 6 hours after irradiation at the age of 8 weeks.
To quantify AAA incidence and size, the maximum width of abdominal aorta was measure with Image Pro Plus software (Media Cybernetics). We quantified aneurysm incidence based on a definition of aneurysm as an external width of the suprarenal aorta that was increased by 50% or greater compared with aortas from saline-infused mice, as described previously (Sparks A R, et al., Imaging of abdominal aortic aneurysms. Am Fam Physician. (2002) 65:1565-70). The average diameter of the normal suprarenal aorta in control mice is 0.8 mm. We therefore set a threshold of 1.22 mm as evidence of aneurysm formation. […]

Test [3] has the same test system. As to the kind of experiment: Blood pressure and heart rate in AngII-infused mice. The settings on record: 4 weeks, mean ± s.e.m.; for sBP: AngII 1000 ng/min/kg; for Dbp / HR: AngII.
Excerpt: as §1
Circ Res. (2014) 114:480-92.
AngII-induced mouse AAA formation in the atherosclerotic-susceptible strain (ApoE^−/−) has become the most widely used model. See Qin Z, et al., Angiotensin II-induced TLR4 mediated abdominal aortic aneurysm in apolipoprotein E knockout mice is dependent on STAT3. J Mol Cell Cardiol. (2015) 87:160-70; Rateri D L, et al., Prolonged infusion of angiotensin II in ApoE (−/−) mice promotes macrophage recruitment with continued expansion of abdominal aortic aneurysm. Am J Pathol. (2011) 179:1542-8; Cassis L A, et al., ANG II infusion promotes abdominal aortic aneurysms independent of increased blood pressure in hypercholesterolemic mice. Am J Physiol Heart Circ Physiol. (2009) 296:H1660-5; Daugherty A and Cassis L A. Mouse models of abdominal aortic aneurysms. Arterioscler Thromb Vasc Biol. (2004) 24:429-34; Owens A P, 3rd, Rateri D L, Howatt D A, Moore K J, Tobias P S, Curtiss L K, Lu H, Cassis L A and Daugherty A. MyD88 deficiency attenuates angiotensin II-induced abdominal aortic aneurysm formation independent of signaling through Toll-like receptors 2 and 4. Arterioscler Thromb Vasc Biol. (2011) 31:2813-9. To unravel the role of the Trp-Kyn pathway in AAA formation ApoE^−/−/IDO^−/− (double-knockout) mice were generated and the outcome of a 4-week AngII infusion (1000 ng/min/kg) in ApoE^−/− and ApoE^−/−/IDO^−/− mice was determined. As depicted in Table 1 and 2, AngII infusion increased blood pressure without affecting the heart rate or any metabolic parameters.

Turning to “Angiotensin II (DRVYIHPF; Angiotensin-2; UniProt P01019 25-32, looked up) [AngII, Angiotensin II (Sigma, A9525) infused to induce AAA in mice]”, in test [1] (Apoe−/− mice), the CyPA came to 771.8 ± 36.8 pM, the IFN-y is 24.91 ± 1.75 pg/mL, the “IL -6” value turned out to be 20.07 ± 3.25 pg/mL and the TNF - a was found to be 123.7 ± 18.2 pg/mL. For the same substance, in test [1] (Apoe−/−/IDO−/− mice), the CyPA was 572.2 ± 42.7 pM, the IFN-y was 28.32 ± 2.73 pg/mL, the “IL -6” value came to 22.25 ± 5.45 pg/mL and the TNF - a is 118.5 ± 16.1 pg/mL. For the same substance, in test [2] (ApoE−/− mice transplanted with IDO−/− or IDO+/+ bone marrow cells), the AAA incidence entry is “approximately 70%”. This substance yielded an AAA incidence in test [2] (ApoE−/−/IDO−/− mice transplanted with IDO−/− or IDO+/+ bone marrow cells) of 20%. In test [3] (Apoe−/− mice), this substance had a sBP of 149.1 ± 19.5 mm Hg, a Dbp of 112.7 ± 17.3 mmHg and an HR of 471 ± 42 Beats/min. For the same substance, in test [3] (Apoe−/−/IDO−/− mice), the sBP came to 155.6 ± 18.4 mm Hg, the Dbp is given as 119.1 ± 14.9 mmHg and the HR was 453 ± 43 Beats/min.
